{"source": "patent US20260327217A1", "about": "“THIAZOLE DERIVATIVES AS TAU AGGREGATION INHIBITORS” (WisTa Laboratories Ltd., priority 2022, published 2026)", "key": {"dGAE": {"target": "T1, dGAE (Homo sapiens, UniProt P10636)", "T1 construct": "HMT or Compound 9 added", "T1 sequence (P10636 614-708)": "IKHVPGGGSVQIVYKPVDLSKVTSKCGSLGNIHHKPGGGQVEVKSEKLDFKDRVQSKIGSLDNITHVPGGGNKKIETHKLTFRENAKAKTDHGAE", "assay": "solution-phase sandwich ELISA of dGAE assembly (scAb epitope occlusion)", "type": "biochemical", "settings": "100 μM dGAE, 500 μM inhibitor, 24 h assembly", "procedure": "Recombinant dGAE was produced in a bacterial expression system and assembled in the presence of 10 mM DTT by incubation at 37° C. with agitation for 24 h, as described previously. For testing the pharmacological activity, assembly reactions were performed with 100 μM dGAE and 500 μM tau aggregation inhibitor (Compound 9 or HMT) in Protein Lobind tubes (Eppendorf). Compound 9 was dissolved in DMSO (final 0.5%) and HMT in 10 mM phosphate buffer (PB) supplemented with 10 mM DTT. Control tubes with dGAE+DTT in PB and dGAE+DTT in 0.5% DMSO were also set up to allow for comparison of the extent of aggregation. Following a 24 h assembly reaction, the contents from each tube were mixed by pipetting and samples removed for the immunodetection of exposed epitopes using a solution-phase sandwich ELISA.\nNinety-six well Nunc Maxisorp plates were pre-coated with mAb 423 (10 μg/ml), which specifically recognises tau that is C-terminally truncated at Glu391 in the Pronase-resistant PHF core, washed three times with PBS containing 0.1% Tween 20 (PBST) and then blocked with 2% dried milk (Marvel) in PBS. Doubling dilutions of dGAE assembly samples were added from starting concentrations of 10 μg/ml in PBS and incubated for 1 h at 37° C. Bound tau was then detected using scAbs (10 μg/ml) and incubated for 1 h at 37° C. Anti-human C kappa HRP-conjugated secondary antibody was diluted 1:1,000 in 2% dried milk in PBS and incubated for 1 h at 37° C. Pierce 1-Step Ultra TMB-ELISA Substrate Solution was used to develop the reaction which was subsequently stopped with the addition of 1 M H2SO4. Absorbance was measured at 450 nm."}, "[1]": {"target": "T2, full-length tau (T40; htau40 isoform) / truncated tau (12-kDa fragment) in 3T6 fibroblast cells (Homo sapiens, UniProt P10636)", "T2 construct": "fibroblast cells (3T6) express full-length tau; PHF-core tau fragment (12-kDa fragment); expressed in transfected cells; host or cells: 3T6 fibroblast cells", "T2 sequence (P10636 1-441 isoform P10636-8)": "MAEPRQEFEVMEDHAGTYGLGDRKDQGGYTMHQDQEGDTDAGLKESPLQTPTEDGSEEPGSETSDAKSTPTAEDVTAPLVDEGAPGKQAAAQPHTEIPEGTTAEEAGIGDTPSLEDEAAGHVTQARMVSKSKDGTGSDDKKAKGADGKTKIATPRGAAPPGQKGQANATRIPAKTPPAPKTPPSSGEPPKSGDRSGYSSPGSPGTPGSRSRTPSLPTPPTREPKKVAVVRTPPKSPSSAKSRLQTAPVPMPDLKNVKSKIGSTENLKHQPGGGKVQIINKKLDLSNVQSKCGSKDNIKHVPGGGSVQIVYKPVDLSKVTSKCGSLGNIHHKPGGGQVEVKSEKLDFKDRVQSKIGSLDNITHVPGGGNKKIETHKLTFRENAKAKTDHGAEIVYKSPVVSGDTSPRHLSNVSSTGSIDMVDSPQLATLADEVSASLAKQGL", "settings": "previously reported [4, 13]; read-out: EC50 in the cell assay; cited from earlier work"}}, "note": "Entries after “also recorded” stand apart in the source; their conditions may differ."}
{"compound": "CN(C)c1ccc2c(c1)Sc1cc(N(C)C)ccc1N2", "note": "[HMT, Hydromethylthionine, reference compound]", "values": [{"measurement": "assembly-dependent occlusion of epitopes", "setting": "dGAE; CA4, CE2, 1G2 and 1D12 epitopes", "value": "assembly-dependent occlusion of these epitopes did not occur"}, {"measurement": "1G2 epitope availability / immunoreactivity", "setting": "dGAE; scAb 1G2", "value": "remained partially occluded"}, {"measurement": "CE2 epitope availability / immunoreactivity", "setting": "dGAE; scAb CE2", "value": "became more available in the HMT-treated sample than in the soluble pre-assembly sample; also recorded: prevented the conformational changes in the CE2 epitope responsible for early loss of immunoreactivity"}, {"measurement": "EC50", "setting": "[1]", "value": 0.6, "unit": "µM"}]}
